≈ marks a conversion by molar mass, not a printed value.
Experiments:
Type in all cases: functional
Staphylococcus aureus [1] = experiment: Antibacterial activity against Methicillin-sensitive Staphylococcus aureus ATCC 25923 assessed as bacterial growth inhibtion incubated for 18 hrs by resazurin dye based microdilution assay
Staphylococcus aureus [2] = experiment: Antibacterial activity against Methicillin-resistant Staphylococcus aureus ATCC 43300 assessed as bacterial growth inhibtion incubated for 18 hrs by resazurin dye based microdilution assay
Staphylococcus aureus [3] = experiment: Antibacterial activity against Staphylococcus aureus assessed as bacterial growth inhibtion incubated for 18 hrs by resazurin dye based microdilution assay
Staphylococcus aureus [4] = experiment: Potency index, ratio of eucalrobusone-F MIC to test compound MIC for antibacterial activity against Staphylococcus aureus

MIC (Staphylococcus aureus [3]) [µM] | SMILES | MIC (Staphylococcus aureus [1]) [µM] | MIC (Staphylococcus aureus [2]) [µM] | Ratio (Staphylococcus aureus [4])
– | CC(C)CC(=O)c1c(O)c(C=O)c(O)c2c1O[C@]1(C)[C@H](C2)C[C@@]2(C(C)C)C[C@H]21 | > 82.9 | > 82.9 | –
16.5 (≈ 8.03 µg/mL) | CC(=O)CC[C@@H]1[C@H]([C@@H]2C[C@@](C)(C(CC(C)C)c3c(O)c(C=O)c(O)c(C=O)c3O)CC2=O)C1(C)C (some centres not stated) | – | – | –
– | CC(C)CC(=O)c1c(O)c(C=O)c(O)c2c1O[C@H]1[C@H]3[C@@H](CC[C@]4(C)Oc5c(c(O)c(C=O)c(O)c5C(=O)CC(C)C)C[C@H]4CC[C@]1(C)C2)C3(C)C | > 45.4 | > 45.4 | –
3.3 (≈ 1.56 µg/mL) | CC(C)CC(c1c(O)c(C=O)c(O)c(C=O)c1O)C1(C)CCC2C1C1C(CCC2(C)O)C1(C)C (configuration not stated) | – | – | –
3.5 (≈ 1.54 µg/mL) | C=C(C)[C@@H]1C=C2[C@@H](C)CC[C@@H](Cc3c(O)c(C=O)c(O)c(C(=O)CCC)c3O)[C@]2(C)CC1 | – | – | –
4.7 (≈ 2.14 µg/mL) | C=C(C)[C@@H]1C=C2[C@@H](C)CC[C@@H](Cc3c(O)c(C=O)c(O)c(C(=O)CC(C)C)c3O)[C@]2(C)CC1 | – | – | –
– | Cc1c(O)c(C=O)c(O)c([C@H]2Oc3c(C=O)c(O)c(C(=O)CC(C)C)c(O)c3C[C@@H]2C(C)C)c1O | > 65.8 | > 65.8 | –
6.9 (≈ 3.14 µg/mL) | C=C1CCC2C(C3C1CCC3(C)C(CC(C)C)c1c(O)c(C=O)c(O)c(C=O)c1O)C2(C)C (configuration not stated) | – | – | –
3.3 (≈ 1.56 µg/mL) | CC(C)C[C@@H](c1c(O)c(C=O)c(O)c(C=O)c1O)[C@@]1(C)CC[C@@H]2[C@@H]1[C@H]1[C@@H](CC[C@@]2(C)O)C1(C)C [MACROCARPAL A] | – | – | –
– | CO[C@H]1/C=C/O[C@@]2(C)Oc3c(C)c(O)c4c(O)c(c(/C=N/N5CCN(C)CC5)c(O)c4c3C2=O)NC(=O)/C(C)=C\C=C\[C@H](C)[C@H](O)[C@@H](C)[C@@H](O)[C@@H](C)[C@H](OC(C)=O)[C@@H]1C [RIFAMPIN] | 0.16 (≈ 0.132 µg/mL) | 0.16 (≈ 0.132 µg/mL) | –
16.8 (≈ 8.24 µg/mL) | CC(C)C[C@@H](c1c(O)c(C=O)c(O)c(C=O)c1O)C1CC[C@@](C)(O)[C@@H]2C[C@H](C(C)(C)O)CC[C@@]12C (some centres not stated) | – | – | –
19.9 (≈ 9.41 µg/mL) | C=C(C)[C@@H]1CC[C@@]2(C)[C@H](Cc3c(O)c(C=O)c(O)c(C(=O)CC(C)C)c3O)CC[C@@](C)(O)[C@@H]2C1 | – | – | –
– | CC(C)C[C@H]1c2c(O)c(C=O)c(O)c(C=O)c2O[C@]2(C)C=CC(=O)C[C@@H]12 | > 89.4 | > 89.4 | –
1.7 (≈ 0.803 µg/mL) | CC(C)CC(c1c(O)c(C=O)c(O)c(C=O)c1O)C1(C)/C=C2/CCC2C(C(C)(C)O)CCC1C (configuration not stated) | – | – | –
7.1 (≈ 3.13 µg/mL) | C=C1CC[C@@H]2[C@H]([C@H]3[C@H]1CC[C@]3(C)Cc1c(O)c(C=O)c(O)c(C(=O)CCC)c1O)C2(C)C | – | – | –
– | CC(C)CC(=O)c1c(O)c(C=O)c2c(c1O)C[C@@H]1CC(=O)CC[C@]1(C)O2 | > 899 | > 899 | –
7.4 (≈ 3.5 µg/mL) | CC(C)CC(=O)c1c(O)c(C=O)c(O)c(C[C@@]2(C)CC[C@@H]3[C@@H]2[C@H]2[C@@H](CC[C@@]3(C)O)C2(C)C)c1O [EUCALYPTIN A] | – | – | –
3.3 (≈ 1.56 µg/mL) | CC(C)CC(c1c(O)c(C=O)c(O)c(C=O)c1O)C1(C)CCC2C1=CC(C(C)(C)O)CCC2C (configuration not stated) | – | – | –
3.4 (≈ 1.61 µg/mL) | CC(C)CC(c1c(O)c(C=O)c(O)c(C=O)c1O)C1(C)C=C2CCC1C(C(C)(C)O)CCC2C (configuration not stated) | – | – | –

SMILES | MIC (Staphylococcus aureus [3]) [µM] | MIC (Staphylococcus aureus [1]) [µM] | MIC (Staphylococcus aureus [2]) [µM] | Ratio (Staphylococcus aureus [4])
CC(C)CC(=O)c1c(O)c(C=O)c(O)c(C[C@H]2CC(C(C)C)=C[C@H]3Oc4c(C=O)c(O)c(C(=O)CC(C)C)c(O)c4C[C@@]23C)c1O | 6.3 (≈ 4.01 µg/mL) | 6.3 (≈ 4.01 µg/mL) | 6.3 (≈ 4.01 µg/mL) | ~2
CC(C)CC(=O)c1c(O)c(C=O)c(O)c(C[C@H]2CC(C(C)C)=C[C@H]3Oc4c(c(O)c(C=O)c(O)c4C(=O)CC(C)C)C[C@@]23C)c1O | 12.6 (≈ 8.02 µg/mL) | 12.6 (≈ 8.02 µg/mL) | 12.6 (≈ 8.02 µg/mL) | –
